Structures can show the parent of a compound that is named as a salt.
target: T1, human cloned 5-HT6 receptors (Homo sapiens, UniProt P50406); assay: 5-HT6 binding affinity, [3H]-LSD displacement from membranes of Hela cells expressing human cloned 5-HT6 receptors; conditions: 1 μM test compound; [3H]-LSD 3.0 nM
T1 construct: expressed in transfected cells; host or cells: HeLa cells
Method: The affinity of test compounds for the serotonin 5-HT6 receptor is evaluated in the following manner. Cultured Hela cells expressing human cloned 5-HT6 receptors are harvested and centrifuged at low speed (1,000×g) for 10.0 min to remove the culture media. The harvested cells are suspended in half volume of fresh physiological phosphate buffered saline solution and recentrifuged at the same speed. This operation is repeated. The collected cells are then homogenized in ten volumes of 50 mM Tris.HCl (pH 7.4) and 0.5 mM EDTA. The homogenate is centrifuged at 40,000×g for 30.0 min and the precipitate is collected. The obtained pellet is resuspended in 10 volumes of Tris.HCl buffer and recentrifuged at the same speed. The final pellet is suspended in a small volume of Tris.HCl buffer and the tissue protein content is determined in aliquots of 10-25 μl volumes. Bovine Serum Albumin is used as the standard in the protein determination according to the method described in Lowry et al., J. Biol. Chem., 193:265 (1951). The volume of the suspended cell membranes is adjusted to give a tissue protein concentration of 1.0 mg/ml of suspension. The prepared membrane suspension (10 times concentrated) is aliquoted in 1.0 ml volumes and stored at −70° C. until used in subsequent binding experiments.
Binding experiments are performed in a 96 well microtiter plate format, in a total volume of 200 μl. […] The test compounds are added in 20.0 μl volume.
The reaction is allowed to proceed in the dark for 120 min at room temperature, at which time, the bound ligand-receptor complex is filtered off on a 96 well unifilter with a Packard Filtermate® 196 Harvester. The bound complex caught on the filter disk is allowed to air dry and the radioactivity is measured in a Packard TopCount® equipped with six photomultiplier detectors, after the addition of 40.0 μl Microscint®-20 scintillant to each shallow well. The unifilter plate is heat-sealed and counted in a PackardTopCount® with a tritium efficiency of 31.0%.
Binding in the presence of varying concentrations of test compound is expressed as a percentage of specific binding in the absence of test compound. The results are plotted as log % bound versus log concentration of test compound. […] A linear regression line of data points is plotted, from which the IC50 value is determined and the Ki value is determined based upon the following equation: Ki=IC50/(1+L/KD) where L is the concentration of the radioactive ligand used and KD is the dissociation constant of the ligand for the receptor, both expressed in nM.

T1 sequence (P50406 whole entry): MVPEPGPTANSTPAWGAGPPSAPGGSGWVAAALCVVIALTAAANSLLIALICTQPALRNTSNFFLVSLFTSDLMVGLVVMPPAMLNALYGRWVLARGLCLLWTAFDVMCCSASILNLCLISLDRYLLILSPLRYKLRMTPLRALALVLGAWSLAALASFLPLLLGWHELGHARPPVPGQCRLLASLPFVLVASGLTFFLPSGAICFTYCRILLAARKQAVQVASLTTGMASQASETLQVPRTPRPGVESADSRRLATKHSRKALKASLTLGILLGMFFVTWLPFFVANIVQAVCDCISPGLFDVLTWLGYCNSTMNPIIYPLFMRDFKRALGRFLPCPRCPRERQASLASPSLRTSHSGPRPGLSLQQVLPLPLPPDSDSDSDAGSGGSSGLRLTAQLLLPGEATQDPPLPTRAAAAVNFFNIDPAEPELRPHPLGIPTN

Molecule | % inhibition at 1 μM concentration (5-HT6 binding)
N,N-Bis(3-methoxybenzyl)-N-(2-{[1-(phenylsulfonyl)-1H-indol-4-yl]oxy}ethylamine [Example 7a] | 94% @ 1 μM*
N-(3-methoxybenzyl)-N-(2-{[1-(phenylsulfonyl)-1H-indol-4-yl]oxy}ethylamineH hydrochloride [Example 7b] | 95% @ 1 μM*

same assay, conditions: 1 μM test compound; [3H]-LSD 3.0 nM; read-out: % inhibition at 1 μM concentration (5-HT6 binding)

Molecule | inhibition at 1 µM
O=S(=O)(c1ccccc1)n1ccc2c(OCCN3CCOCC3)cccc21 [Example 9, 4-(2-Morpholin-4-ylethoxy)-1-(phenylsulfonyl)-1H-indole Hydrochloride] | 92%
O=[N+]([O-])c1ccc(S(=O)(=O)n2ncc3c(OCCN4CCCCC4)cccc32)cc1 [Example 15, 1-[(4-nitrophenyl)sulfonyl]-4-[2-(1-piperidinyl)ethoxy]-1H-indazole] | 76%

same assay, conditions: [3H]-LSD 3.0 nM, Hela cell membranes, 120 min at room temperature

Molecule | Ki
NCCOc1cccc2c1ccn2S(=O)(=O)c1ccccc1 [Example 5, 2-{[1-(Phenylsulfonyl)-1H-indole-4-yl]oxy}ethylamine Hydrochloride] | 2 nM
O=S(=O)(c1ccccc1)n1ccc2c(OCCNC3CCOCC3)cccc21 [Example 6, N-(2-{[1-(Phenylsulfonyl)-1H-indol-4-yl]oxy}ethyl)tetrahydro-2H-pyran-4-amine Hydrochloride] | 6 nM
O=S(=O)(c1ccccc1)n1ncc2c(OCCNC3CCOCC3)cccc21 [Example 17] | 6 nM
O=S(=O)(c1ccc(F)cc1)n1ncc2c(OCCN3CCCCC3)cccc21 [Example 16, 1-[(4-fluorophenyl)sulfonyl]-4-[2-(1-piperidinyl)ethoxy]-1H-indazole] | 19 nM
Nc1ccc(S(=O)(=O)n2ncc3c(OCCN4CCCCC4)cccc32)cc1 [Example 19, 4-({4-[2-(1-Piperidinyl)ethoxy]-1H-indazol-1-yl}sulfonyl)aniline] | 1 nM
O=S(=O)(c1ccccc1)n1ncc2c(OCCN3CCCCC3)cccc21 [Example 13, 1-Phenylsulfonyl)-4-[1-piperidinyl)ethoxy]-1H-indazole Hydrochloride] | 2 nM
O=S(=O)(c1ccccc1)n1ncc2c(OCCNC3CCSCC3)cccc21 [Example 18, N-(2-{[1-Phenylsulfonyl)-1H-indazol-4-yl]oxy}ethyl)tetrahydro-2H-thiopyran-4-amine Hydrochloride] | 11 nM
NCCOc1cccc2c1cnn2S(=O)(=O)c1ccccc1 [Example 14, 2-{[1-Phenylsulfonyl)-1H-indazol-4-yl]oxy}ethylamine Hydrochloride] | 1 nM
CN(C)CCOc1cccc2c1ccn2S(=O)(=O)c1ccccc1 [Example 8, N,N-Dimethyl-N-(2-{[1-phenylsulfonyl)-1H-indol-4-yl]oxy}ethylamine Hydrochloride] | 4 nM
O=S(=O)(c1ccccc1)n1ccc2c(OCCN3CCCCC3)cccc21 [Example 10, 1-(Phenylsulfonyl)-4-(2-piperidin-1-ylethoxy)-1H-indole Hydrochloride] | 7 nM

system: not given; assay: not given; conditions: not given

Molecule | melting point
O=[N+]([O-])c1ccc(S(=O)(=O)n2ncc3c(OCCN4CCCCC4)cccc32)cc1 (as salt: hydrochloride) [Example 15, 1-[(4-nitrophenyl)sulfonyl]-4-[2-(1-piperidinyl)ethoxy]-1H-indazole] | 117 to 119 °C
O=S(=O)(c1ccc(F)cc1)n1ncc2c(OCCN3CCCCC3)cccc21 (as salt: hydrochloride) [Example 16, 1-[(4-fluorophenyl)sulfonyl]-4-[2-(1-piperidinyl)ethoxy]-1H-indazole] | 122 °C (dec.)

— patent US6919354B2, “1-aryl-or 1-alkylsulfonylbenzazole derivatives as 5-hydroxytryptamine-6 ligands” (Wyeth, priority 2001, dated 2005)
